Here are results for two molecules from ChEMBL document CHEMBL4418498, “Halogenated benzotropolones as atg4b inhibitors” (2018).

Data set [1] has as its target T1, Cysteine protease ATG4B (Homo sapiens) (UniProt Q9Y4P1).
T1 sequence (whole entry): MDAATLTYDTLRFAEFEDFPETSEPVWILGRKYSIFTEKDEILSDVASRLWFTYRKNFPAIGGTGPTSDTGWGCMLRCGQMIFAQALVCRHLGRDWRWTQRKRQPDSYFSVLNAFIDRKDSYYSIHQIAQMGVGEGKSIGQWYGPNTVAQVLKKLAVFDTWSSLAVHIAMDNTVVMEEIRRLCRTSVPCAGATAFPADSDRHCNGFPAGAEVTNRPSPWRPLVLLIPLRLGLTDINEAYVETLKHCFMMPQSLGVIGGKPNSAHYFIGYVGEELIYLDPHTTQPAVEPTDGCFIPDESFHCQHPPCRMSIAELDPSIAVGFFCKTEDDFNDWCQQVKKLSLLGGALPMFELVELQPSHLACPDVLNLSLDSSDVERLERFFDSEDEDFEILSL
The data set can be described thus: Inhibition of Atg4B in human Jurkat T-cells assessed as reduction in everolimus-induced autophagy at […] incubated for 16 hrs by CYTO-ID-based phenotypical screening assay relative to control everolimus alone (reference value: 1 No unit). In kind it is cell-based.

Data set [2] is described as follows: Metabolic stability in mouse liver microsomes assessed as parent compound recovery after 30 mins in presence of NADPH regenerating system by LC-MS/MS analysis. As to conditions: read-out: Drug recovery. In kind it is ADME, Microsome.

With `Cn1cnc(N)c2ncnc1-2`, in data set [1], the Ratio was found to be 0.57.

Regarding `O=C(O)c1cc(O)c(=O)c2c(O)c(O)c(Br)cc2c1`, the remaining at 0.5 h in data set [2] turned out to be 100%.
